From patent publication US20070099891A1, “Medicinal compositions and combinations” (priority 2003, published 2007)

Key:
LDL receptor protein = assay: Expression of LDL receptor protein in liver of endogenous hyperlipemia rabbit (immunoblotting); type: in vivo; conditions: casein diet
Procedure: For the rabbit used in Example 2, liver was taken out after one day of a final administration of the agent. A homogenizing buffer (20 mM Tris-HCl (pH 8.0), 1 mM CaCl2, 150 mM NaCl, a mix of protease inhibitor) was added to a part of this liver and the mixture was homogenized and centrifuged at 8000×g, 4° C. for 10 min., thereafter the supernatant was ultracentrifuged at […], 4° C. for 60 min. The resulting precipitate was washed by adding the homogenizing buffer and centrifuging at 10,000×g, 4° C. for 30 min., and thereafter was suspended in a suspension buffer (125 mM Tris-maleate (pH 6.8), 1 mM CaCl2, 160 mM NaCl, 1% (w/v) Triton X-100, Protease inhibitor (Complete™, Boehringer Ingelhaim Co., Ltd., Ingelheim, Germany)) to prepare a fraction of the liver membrane. After mixing with a buffer (125 mM Tris-HCl (pH 6.8), 20% (v/v) glycerol, 4% (w/v) sodium dodecyl sulfate (hereinafter, referred to as SDS) and 0.001% (w/v) bromophenol blue), the fraction was subjected to SDS polyacrylamide electrophoresis (using a 7.5% polyacrylamide gel), and the resultant was transferred to a polyvinylidene difluoride (PVDF) membrane and then the amount of LDL receptor protein was evaluated by an immunoblotting using anti-LDL receptor antibody. […]

HepG2 cell = assay: LDL binding, uptake and degradation activity in cultured human hepatic cell line HepG2 ([125I]LDL); type: cell-based; conditions: for Binding Amounts / Degradation Amounts / Uptake Amounts: mean ± standard error, 6 experiments
Procedure: The cultured human hepatic cell line HepG2 cell was purchased from the Dainippon Pharmaceuticals Co. Ltd. (Osaka, Japan). The determinations of LDL binding, uptake and degradation activity were performed according to a prior report (Method in Enzymology, 98, 241-255, 1983). Cells were seeded in a 24 well plate and were incubated in the Dulbecco's modified Eagle/F-12 (DMEM/F-12) medium containing 10% fetal bovine serum and antibiotics at 37° C. for two days. After washing the cells, a DMEM/F-12 medium containing 10% lipoprotein-removed serum, the test substrate and the antibiotics was added and the cells were incubated at 37° C. for 19 hours. After adding [^125I]LDL, the cells were incubated at 37° C. for another 5 hours. The culture supernatant was collected and trichloroacetic acid was added thereto, and then it was statically kept for 30 minutes or more at 4° C. After centrifuging (700×g, 4° C., 15 min.), the supernatant was separated and sodium iodide was added thereto, and further hydrogen peroxide was added. After treating the mixture at room temperature for 5 min., chloroform was added and the mixture was stirred. After centrifuging (700×g, 4° C., 5 min.), the radioactivity in the supernatant was measured by a gamma counter, and then the data thus obtained was evaluated as an amount of degradation of LDL. Separately, after washing the cells thoroughly, a dissociation buffer (50 mM NaCl, 10 mM 2-[4-(2-hydroxyethyl)-1-piperadinyl]ethane sulfonic acid (HEPES, pH 7.4), 10 mg/mL heparin) was added and then the cells were statically kept at 4° C. for 60 min. or more. […] Furthermore, 1N sodium hydroxide was added to the remaining cells and the mixture was reacted for more than 10 min. to dissolve the cells. […] On the other hand, the amounts of non-specific degradation, binding and uptake were evaluated by coexisting an excess of non-labeled LDL on addition of [^125I] LDL, while the amounts of specific degradation, binding and uptake were obtained by subtracting the amounts of non-specific degradation, binding and uptake from the total amounts of degradation, binding and uptake and further calibrating with the amounts of protein.

[1] = test system: rabbit with endogenous hyperlipemia caused by a casein diet load; assay: Blood cholesterol lowering action in endogenous hyperlipemia rabbit (casein diet); type: in vivo, New Zealand White rabbit
Procedure: 8 weeks old male New Zealand White rabbit were bred for 12 days with ad libitum water and feeding conditions (rabbit·guinea pig breeding feed RC4, Oriental Yeast Co., Ltd., Tokyo, Japan). Thereafter, the diet was replaced with the casein diet containing 27% casein (Oriental Yeast Co., Ltd., Tokyo, Japan), and then the restricted feeding to the 100 g per 3 kg weight was performed for one week. At this point, the blood was collected via auricular veins and the plasma total cholesterol amounts was measured and then these rabbits were divided such that the mean of the weight and the plasma total cholesterol were equal approximately. […] Each agent was dissolved in propylene glycol containing 0.5% polyoxyethylenesorbitan monooleate (Tween 80) and then these were administered orally. On the other hand, for control group, the solvent (propylene glycol comprising 0.5% Tween 80) was administered orally. At one day after final administration, the blood was collected and plasma total cholesterol was measured and also the lipoprotein was fractioned according to the differential ultracentrifugation method (Nobuhiro, Yamada, Yasushi Sato edit.: Study strategy of Arteriosclerotic+Hyperlipemia, 63-69, 1996, Shujunsha Co. Ltd.), and then the amounts of cholesterol in the fraction of LDL were measured. The amount of total cholesterol in plasma and the amount of cholesterol in LDL fraction were determined by using an automatic biochemical analyzer (Biochemical Analyzer CHEM 1, Bayer Corporation, NY, USA).

[2] = single agent; not reduced more even if the dosage is increased; cited from earlier work
[3] = 1 mg/kg orally for 3 weeks, mean ± standard error

Row | Structure (SMILES) | amount of the expression of LDL receptor protein in liver (in words, FIG. 1) (LDL receptor protein; atorvastatin 1 and 3 mg/kg) | Binding Amounts (HepG2 cell; single agent 0.1 μM) [ng/mg protein] | Degradation Amounts (HepG2 cell; single agent 0.1 μM) [ng/mg protein] | Binding Amounts (HepG2 cell; single agent 1 μM) [ng/mg protein] | Degradation Amounts (HepG2 cell; single agent 1 μM) [ng/mg protein] | Binding Amounts (HepG2 cell; single agent 10 μM) [ng/mg protein] | Degradation Amounts (HepG2 cell; single agent 10 μM) [ng/mg protein] | amount of the expression of LDL receptor protein in liver (in words, FIG. 1) (LDL receptor protein; compound A 1 mg/kg) | amounts of binding, uptake and degradation of LDL (in words) (HepG2 cell; compound A 0.01 to 1 μM) | Binding Amounts (HepG2 cell; single agent 0.01 μM) [ng/mg protein] | Degradation Amounts (HepG2 cell; single agent 0.01 μM) [ng/mg protein] | Uptake Amounts (HepG2 cell; single agent 0.01 μM) [ng/mg protein] | Uptake Amounts (HepG2 cell; single agent 0.1 μM) [ng/mg protein] | Uptake Amounts (HepG2 cell; single agent 1 μM) [ng/mg protein] | plasma LDL cholesterol [1, 3] [mg/dL] | plasma total cholesterol [1, 3] [mg/dL] | plasma total cholesterol lowering action and plasma LDL cholesterol lowering action (in words) ([1]; 1 mg/kg, compared to control) | degree of lowering of LDL cholesterol [2] [%]
1 | CC(C)c1c(C(=O)Nc2ccccc2)c(-c2ccccc2)c(-c2ccc(F)cc2)n1CC[C@@H](O)C[C@@H](O)CC(=O)O [Atorvastatin, atorvastatin, reference compound] | increased | 81.7 ± 2.1 | 800.9 ± 32.5 | 86.3 ± 2.7 | 1000.5 ± 62.9 | 95.5 ± 4.0 | 1062.3 ± 66.0 |  |  |  |  |  |  |  |  |  |  | 
2 | CCCCn1c(=O)c(NC(=O)Nc2c(C(C)C)cc(N)cc2C(C)C)c(-c2cccc(OCCCO)c2)c2cccnc21 [Compd. A, N-[1-butyl-4-[3-[3-(hydroxy)propoxy]phenyl]-1,2-dihydro-2-oxo-1,8-naphthyridine-3-yl]-N′-(2,6-diisopropyl-4-aminophenyl)urea] |  | 90.9 ± 4.1 | 1016.8 ± 45.3 | 93.7 ± 2.5 | 1126.3 ± 70.3 |  |  | increased | increased | 85.2 ± 3.6 | 927.5 ± 90.0 | 852.9 ± 47.3 | 886.4 ± 29.2 | 1172.2 ± 46.2 | 52 ± 9 | 108 ± 5 | significant effects | 
3 | O=C1[C@H](CC[C@H](O)c2ccc(F)cc2)[C@@H](c2ccc(O)cc2)N1c1ccc(F)cc1 [ezetimibe, 1-(4-fluorophenyl)-3(R)-[3-(4-fluorophenyl)-3(S)-hydroxypropyl]-4(S)-(4-hydroxyphenyl)-2-azetidinone] |  |  |  |  |  |  |  |  |  |  |  |  |  |  |  |  |  | 15 to 20
